{"source": "patent US8372832B2", "about": "(priority 2006, dated 2013)", "target": "α7-subtype of nicotinic receptors (Rattus norvegicus, UniProt Q05941)", "sequence (Q05941 23-502)": "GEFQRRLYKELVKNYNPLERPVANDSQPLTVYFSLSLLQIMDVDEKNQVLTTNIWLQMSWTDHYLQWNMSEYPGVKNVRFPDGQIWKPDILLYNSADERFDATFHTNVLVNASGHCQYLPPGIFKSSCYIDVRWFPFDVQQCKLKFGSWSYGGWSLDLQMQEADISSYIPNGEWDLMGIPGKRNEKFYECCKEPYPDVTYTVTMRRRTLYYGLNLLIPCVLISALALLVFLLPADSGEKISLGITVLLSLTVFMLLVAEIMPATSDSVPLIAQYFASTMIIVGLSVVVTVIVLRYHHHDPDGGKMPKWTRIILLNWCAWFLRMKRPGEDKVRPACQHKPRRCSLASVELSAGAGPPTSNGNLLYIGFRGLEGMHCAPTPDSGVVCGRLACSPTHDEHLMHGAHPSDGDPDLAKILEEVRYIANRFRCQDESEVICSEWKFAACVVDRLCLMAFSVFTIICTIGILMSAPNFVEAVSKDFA", "assay": "biochemical", "format": "binding", "note": "pIC50: −log10 of the molar value."}
{"smiles": "Brc1ccc(-c2nnc(N3CCN4CCC3CC4)o2)o1", "note": "[Compound A1, 4-[5-(5-Bromo-furan-2-yl)-[1,3,4]oxadiazol-2-yl]-1,4-diaza-bicyclo[3.2.2]nonane]", "values": [{"measurement": "pIC50", "value": "> 8.00"}]}
